Each structure is given as a SMILES string.

The target of the assay is HIV-1 protease (Human immunodeficiency virus, UniProt O90785). The experiment in a line: Enzyme Inhibition Assay.
Chain of HIV-1 protease (O90785 whole entry): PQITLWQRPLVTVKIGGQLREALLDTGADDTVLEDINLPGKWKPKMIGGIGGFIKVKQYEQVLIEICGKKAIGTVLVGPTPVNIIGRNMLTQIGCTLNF
Molecule `O=C(NCc1ccccc1)[C@H](Cc1ccccc1)CC(O)C[C@@H](Cc1ccccc1)C(=O)NCc1ccccc1` [Carbinol, 18a] had a Ki of 3.2 µM.

`O=C(NC1c2ccccc2CC1O)[C@H](Cc1ccccc1)CC(O)C[C@@H](Cc1ccccc1)C(=O)NC1c2ccccc2CC1O` (stereo partly drawn) [Carbinol, 18b] had a Ki of 0.0038 µM.

In the case of `O=C(NCc1ccccc1)[C@H](Cc1ccccc1)C[Si](O)(O)C[C@@H](Cc1ccccc1)C(=O)NCc1ccccc1` [Silanediol, 17a], affinity was put at a Ki of 3.2 µM.

In general, Ki refers to a dissociation constant, usually derived from enzyme kinetics or from competition with a known ligand. Higher therefore signals weaker binding.

The values above are taken from BindingDB's records for doi:10.1016/S1074-5521(01)00079-5 (State University of New York, 2001).
